Measured values taken from patent US20030207843A1, “Treatment of drug-resistant human immunodeficiency virus infection” (priority 1999, published 2003).
Where “and” joins values, the source holds several entries; their conditions need not be identical. Identical values can stand only once. Like-named read-outs stand apart in the source and are kept apart here.

Assays:
Format in all cases: cell-based
HIV-1LAI S117T = assay: p24 reduction assay in MT-2 cells, S117T
Procedure: (§1) Cells. MT-2 cells (AIDS Research and Reference Reagent Program, National Institute of Allergy and Infectious Diseases, National Institutes of Health) were maintained in RPMI 1640 supplemented with 10% fetal bovine serum (FBS; JRH Biosciences, Lenexa, Kans.), 10 mM HEPES buffer, 50 IU/ml penicillin and 50 μg/ml streptomycin.
(§2) Antiviral Susceptibility Assays. The antiviral activity of each compound was determined by inoculating MT-2 cells with HIV-1LAI at a multiplicity of infection (MOI) of 0.01 TCID50/cell, followed by incubation in the presence of three-fold serial drug dilutions (3 wells per dilution) (see Mellors, et. al., Antimicrob. Agents Chemother. 39:1087-1092). Five or seven days after infection, culture supernatants were harvested, lysed with 0.5% triton-X 100 and assayed for p24 antigen concentration using a commercial ELISA assay (DuPont, NEN Products, Wilmington, Del.). The antiviral activity of the compounds is expressed as the IC50, which is the concentration required to inhibit 50% of p24 antigen production. The fold-resistance of a test virus is calculated by dividing the IC50 of the test virus by the IC50 of the HIV-1LAI control virus.
(§3) Generation of Mutant Recombinant HIV-1. HIV-1 containing the desired mutations were generated by oligonucleotide directed mutagenesis (Altered Sites II, Promega) as previously described (Mellors, et. al., Molecular Pharm. 41:446-451). After mutagenesis, mutant RT was subcloned into the pxxHIV-1LAI cloning vector using the silent XmaI and XbaI restriction sites located at the 5′ and 3′ ends of RT. Clones were DNA sequenced to verify the presence of the desired mutation(s) and electroporated into MT-2 cells as described above to generate infectious mutant recombinant HIV-1.
(§4) Mutant RT was generated via oligonucleotide-directed mutagenesis and ligated into the pXXHIV-1LAI cloning vector. Cloning was facilitated by the presence of two silent restriction sites at the 5′ and 3′ ends (Xma1 and Xba1, respectively) of pXXHIV-1LAI RT. Infectious mutant recombinant HIV-1 was generated by electroporating MT-2 cells with mutated pXXHIV-1LAI clones. The presence of the desired mutations was verified by DNA sequencing.
DNA sequencing identified two mutations in RT: S117T and L214F.
(§5) Recombinant viruses containing the mutations selected by invention compounds were also evaluated for their susceptibility to AZT, as shown in Table 8.

HIV-1LAI W88G/L214F = assay: p24 reduction assay in MT-2 cells, W88G/L214F
Procedure: as §1, §2, §3, §4
EB-PFA resistant virus was selected a second time after 15 passages. This virus also contained the mutations W88G and L214F.
as §5

HIV-1LAI M164I = assay: p24 reduction assay in MT-2 cells, M164I; details: Table 8
Procedure: as §1, §2
(§6) Generation of Mutant Recombinant HIV-1. […]
as §5

HIV-1LAI M164I/4XAZT = assay: p24 reduction assay in MT-2 cells, M164I/4XAZT; details: Table 8
Procedure: as §1, §2, §6, §5

HIV-1LAI L214F = assay: p24 reduction assay in MT-2 cells, L214F; details: Table 8
Procedure: as §1, §2, §6, §5

HIV-1LAI S117T/L214F = assay: p24 reduction assay in MT-2 cells, S117T/L214F; details: Table 8
Procedure: as §1, §2, §3
Mutant RT was generated via oligonucleotide-directed mutagenesis and ligated into the pXXHIV-1LAI cloning vector. […]
as §5

HIV-1LAI M164I/L214F = assay: p24 reduction assay in MT-2 cells, M164I/L214F
Procedure: as §1, §2, §3, §4
DNA sequencing of the RT gene (amino acid (AA) 1 to 350) from MB-PFA resistant virus identified three mutations: V75L, M164I and L214F. Recombinant viruses encoding the V75L, M164I and L214F mutations were constructed and tested for susceptibility to MB-PFA.
as §5

HIV-1LAI S117T/4XAZT = assay: p24 reduction assay in MT-2 cells, S117T/4XAZT; details: Table 8
Procedure: as §1, §2, §6, §5

[1] = tested on: HIV-1LAI selected with MB-PFA, passage 15; assay: Susceptibility of virus selected in vitro with MB-PFA
Procedure: as §2
Selection of Resistant Viruses. Selections were initiated by inoculating 1.0×10^6 MT-2 cells at an MOI of 0.1 with plasmid derived HIV-1LAI which had been passaged as cell-free virus 10 times in MT-2 cells in the absence of compound (see Bazmi, et. al., Antimicrobial Agents and Chemotherapy 44:1783-1788). Cells were pretreated with drug for two hours prior to inoculation with virus. For each selection, the starting concentration was the IC50 of the compound, and the selective pressure (i.e. drug concentration) was doubled every three passages. Viral cytopathic effects (CPE) were monitored daily. At 2+CPE (≧2 syncitia per 100× field) cell free virus supernatant was harvested and used to initiate a new cycle of infection in fresh MT-2 cells. The passaged virus was monitored regularly for a reduction in susceptibility to the compounds by determining the EC50 relative to unpassaged HIV-1LAI (Mellors, et. al., Antimicrob. Agents Chemother. 39:1087-1092).
Genetic Analyses. Virions were pelleted from culture supernatants by centrifugation at 25,000×g for 1 hour. Total RNA was extracted from the virus pellet using TRIZOL® Reagent (Gibco BRL, Grand Island, N.Y.) and resuspended in diethyl pyrocarbonate-treated sterile water. […]

[2] = tested on: recombinant HIV-1 with V75L alone or in combination with L214F or M164I; assay: p24 reduction assay in MT-2 cells, V75L recombinants; details: Example 6
Procedure: as §2
as §3, with “Clones were DNA sequenced to verify the presence of the desired mutation(s) and electroporated into MT-2 cells as described above to generate infectious mutant recombinant HIV-1.” left out

SMILES: O=C(O)P(=O)(O)O [PFA, phosphonoformate, reference compound]
- Fold resistance (HIV-1LAI S117T; {}): 4.7 fold

SMILES: CCCCCCCCCCCCCCCCCCOC[C@H](COP(=O)(O)C(=O)O)OCC [EB-PFA, 1-O-octadecyl-2-O-ethyl-sn-glycero-3-PFA]
- Fold resistance (HIV-1LAI W88G/L214F; Example 6, recombinant virus W88G plus L214F): 15.5 fold
- EC50 (HIV-1LAI W88G/L214F; Example 6, recombinant virus W88G plus L214F, read-out: EC50): 9.1 µM

SMILES: Cc1cn([C@H]2C[C@H](N=[N+]=[N-])[C@@H](CO)O2)c(=O)[nH]c1=O [AZT, 3′-Azido-3′-deoxythymidine]
- EC50 (HIV-1LAI M164I; Human immunodeficiency virus 1, MT2, M164I, read-out: AZT EC50): 12 ± 4 nM
- Fold resistance (HIV-1LAI M164I; M164I relative to wild type virus): 0.6
- EC50 (HIV-1LAI M164I/4XAZT; Human immunodeficiency virus 1, MT2, M164I/4XAZT, read-out: AZT EC50): 43 ± 22 nM
- Fold resistance (HIV-1LAI M164I/4XAZT; M164I/4XAZT relative to wild type virus): 1.1
- EC50 (HIV-1LAI L214F; Human immunodeficiency virus 1, MT2, L214F, read-out: AZT EC50): 35 ± 33 nM
- Fold resistance (HIV-1LAI L214F; L214F relative to wild type virus): 1.7
- EC50 (HIV-1LAI W88G/L214F; Human immunodeficiency virus 1, MT2, Table 8, W88G/L214F, read-out: AZT EC50): 0.015 ± 0.015 µM
- Fold resistance (HIV-1LAI W88G/L214F; Table 8, W88G/L214F relative to wild type virus): 0.7
- EC50 (HIV-1LAI S117T/L214F; Human immunodeficiency virus 1, MT2, S117T/L214F, read-out: AZT EC50): 22 ± 10 nM
- Fold resistance (HIV-1LAI S117T/L214F; S117T/L214F relative to wild type virus): 1.1
- EC50 (HIV-1LAI S117T; Human immunodeficiency virus 1, MT2, Table 8, S117T, read-out: AZT EC50): 17 ± 7 nM
- Fold resistance (HIV-1LAI S117T; Table 8, S117T relative to wild type virus): 0.8
- EC50 (HIV-1LAI M164I/L214F; Human immunodeficiency virus 1, MT2, Table 8, M164I/L214F, read-out: AZT EC50): 0.008 ± 0.003 µM
- Fold resistance (HIV-1LAI M164I/L214F; Table 8, M164I/L214F relative to wild type virus): 0.4
- EC50 (HIV-1LAI S117T/4XAZT; Human immunodeficiency virus 1, MT2, S117T/4XAZT, read-out: AZT EC50): 40 ± 6 nM
- Fold resistance (HIV-1LAI S117T/4XAZT; S117T/4XAZT relative to wild type virus): 1.4

SMILES: CCCCCCCCCCCCCCCCCCOC[C@H](COP(=O)(O)C(=O)O)OC [MB-PFA, 1-O-octadecyl-2-O-methyl-sn-glycero-3-PFA]
- Fold resistance ([1]; Example 6, repeated selection, after 15 passages (M164I and L214 mutations, not V75L)): 31 fold
- EC50 ([1]; Table 6, MB-PFA-selected virus, passage 15 (V75L, M164I, L214F)): 2160 nM
- Fold resist. ([1]; Table 6, MB-PFA-selected virus, passage 15, relative to passage 0): 27 and 30.9
- Fold resistance [2]: < 3 fold
- Fold resistance (HIV-1LAI M164I/L214F; Example 6, recombinant virus with M164I and L214F): 9.3 fold
- EC50 (HIV-1LAI M164I/L214F; Example 6, recombinant virus with M164I and L214F, read-out: EC50): 8.1 µM
